Laboratory results taken from patent publication US7303866B2, “Methods of identifying an agent that modulates an interaction between 53BP1 and histone H3, and uses thereof” (priority 2004, dated 2007).
Where a SMILES comes first, the peptide text is derived from it. Where no end group is shown, it is not given here. [ ]: non-standard residue; d: D form. Lys(Me2) = CN(C)CCCC[C@H](N)C(=O)O; d = 2'-deoxy (DNA); r = 2'-OH (RNA)

Columns and labels:
[1] = target: 53BP1 tandem tudor domain (Homo sapiens, UniProt Q12888); assay: Isothermal titration calorimetry; format: binding; conditions: data not shown; read-out: dissociation constant
Sequence of 53BP1 tandem tudor domain (Q12888 1484-1603 limits assumed): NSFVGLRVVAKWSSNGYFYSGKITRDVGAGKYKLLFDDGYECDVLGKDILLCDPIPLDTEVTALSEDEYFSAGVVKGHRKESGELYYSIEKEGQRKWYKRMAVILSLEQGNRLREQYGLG

[2] = target: T1, GST-53BP1 fusion protein containing 53BP1 residues 1480-1626 (Homo sapiens, UniProt Q12888); assay: Competition of binding of GST-53BP1 to histone H3 by histone H3 peptides (pull-down, immunoblot); conditions: 5 or 25 μg peptide; histones prepared from 293T cells; bound histone H3 detected by immunoblotting
T1 construct: a GST-53BP1 fusion protein containing 53BP1 residues 1480-1626 to histones prepared from 293T cells
T1 sequence (Q12888 1480-1626): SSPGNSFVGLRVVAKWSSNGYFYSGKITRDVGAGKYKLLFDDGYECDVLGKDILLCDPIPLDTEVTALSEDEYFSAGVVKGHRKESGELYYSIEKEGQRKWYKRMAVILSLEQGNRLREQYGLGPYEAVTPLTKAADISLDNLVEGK
From the text: FIG. 3 Binding of the tandem tudor domain of 53BP1 to histone H3 methylated on Lys79. a, GST-53BP1 fusion proteins containing residues 1157-1634 or 1480-1626 of human 53BP1 or plain GST protein were examined for binding to calf thymus histones (ct) or recombinant histones H3 and H4 (r). The proteins were resolved by SDS-PAGE and stained with Coomassie Brilliant Blue. The labels for H3, H2A, H2B and H4 refer to the input histones (Inp. Hist.). b, Identification of 53BP1-bound histones as full-length and N-terminally-cleaved histone H3. Input and GST-53BP1-bound histones were stained with Coomassie Brilliant Blue (C.B.) or immunoblotted (IB) with an antibody that recognizes the C-terminus (C-ter) of histone H3. c, Enrichment for methylation of Lys79 in histone H3 bound to GST-53BP1 as compared to input histone H3. Bound full-length histone H3 (aa 1-135), bound cleaved histone H3 (aa 28-135) and full-length histone H3 from the input fraction were analyzed by tandem mass spectrometry (MS/MS). For each sample, the identified peptides that include Lys79 are shown. K, K# and K## represent non-, mono- and di-methylated lysine, respectively. TIC, total ion current (an indicator of peptide abundance); dM, absolute difference of the experimental and theoretical masses; xCorr, cross correlation value of the experimental MS/MS spectrum versus the theoretical; Ions, number of matched ions in the experimental MS/MS spectrum versus the total number of theoretically possible ions. d, Competition of binding of 53BP1 to histone H3 by methylated histone H3 peptides. Binding of a GST-53BP1 fusion protein containing 53BP1 residues 1480-1626 to histones prepared from 293T cells was performed in the presence of no competitor peptide (−) or 5 or 25 μg histone H3 peptides. Bound histone H3 was detected by immunoblotting. Peptides spanning residues 74-83 of histone H3 had either non- (nm), mono- (mm) or di-methylated (dm) Lys79 (K79); peptides spanning residues 23-34 and 23-32 of histone H3 had dimethylated Lys27 (K27) and Arg26 (R26), respectively. e, Binding of a GST fusion protein containing S. cerevisiae Rad9 residues 750-917 to histone H3. Binding was examined as in a. f, Amino acid substitutions that disrupt recruitment of 53BP1 to sites of DNA DSBs also disrupt binding to histone H3. Binding was examined as in a. g, Crosslinking of ectopically-expressed His-tagged GFP-53BP1 to endogenous histone H3 in irradiated U2OS cells. Non-transfected U2OS cells (−) or cells transfected with His-tagged GFP-53BP1 fusion proteins having wild-type (wt) or mutant (Asp1521Arg, D1521R) 53BP1 were crosslinked with formaldehyde (fr) or were mock-crosslinked (m). Triton-X100 insoluble material (TrIM) from these cells was incubated with nickel-coated beads. Histone H3 in the TrIM and nickel bead-bound (NiBB) fractions was detected by immunoblotting after the crosslinks were reversed.
Glutathione S-transferase (GST) proteins (5 μg) fused to residues 1157-1634 or 1480-1626 of human 53BP1 or 750-917 of S. cerevisiae Rad9 were bound to glutathione beads (Pharmacia). The beads were then incubated for 1 h at 4° C. with histones in buffer containing 25 mM BTP [pH 6.8], 1 M KCl, and 0.5% Triton X-100. After 6 washes the bound material was resolved on SDS-polyacrylamide gels and either stained with Coomassie Brilliant Blue or immunoblotted with an antibody that recognizes the C-terminus of histone H3 (AbCam). […]

human Dot1L = target: T2, human Dot1L (Homo sapiens, UniProt Q8TEK3); assay: Suppression of histone H3 methylation on Lys79 by siRNA (immunoblot); format: cell-based; conditions: U2OS cells, dot1L siRNA transfection (up to 3 rounds)
T2 construct: U2OS cells were transfected with control siRNA (luciferase; Dharmacon) or siRNA directed against human dot1L; endogenous in cells; host or cells: U2OS osteosarcoma cells
T2 sequence (Q8TEK3 whole entry): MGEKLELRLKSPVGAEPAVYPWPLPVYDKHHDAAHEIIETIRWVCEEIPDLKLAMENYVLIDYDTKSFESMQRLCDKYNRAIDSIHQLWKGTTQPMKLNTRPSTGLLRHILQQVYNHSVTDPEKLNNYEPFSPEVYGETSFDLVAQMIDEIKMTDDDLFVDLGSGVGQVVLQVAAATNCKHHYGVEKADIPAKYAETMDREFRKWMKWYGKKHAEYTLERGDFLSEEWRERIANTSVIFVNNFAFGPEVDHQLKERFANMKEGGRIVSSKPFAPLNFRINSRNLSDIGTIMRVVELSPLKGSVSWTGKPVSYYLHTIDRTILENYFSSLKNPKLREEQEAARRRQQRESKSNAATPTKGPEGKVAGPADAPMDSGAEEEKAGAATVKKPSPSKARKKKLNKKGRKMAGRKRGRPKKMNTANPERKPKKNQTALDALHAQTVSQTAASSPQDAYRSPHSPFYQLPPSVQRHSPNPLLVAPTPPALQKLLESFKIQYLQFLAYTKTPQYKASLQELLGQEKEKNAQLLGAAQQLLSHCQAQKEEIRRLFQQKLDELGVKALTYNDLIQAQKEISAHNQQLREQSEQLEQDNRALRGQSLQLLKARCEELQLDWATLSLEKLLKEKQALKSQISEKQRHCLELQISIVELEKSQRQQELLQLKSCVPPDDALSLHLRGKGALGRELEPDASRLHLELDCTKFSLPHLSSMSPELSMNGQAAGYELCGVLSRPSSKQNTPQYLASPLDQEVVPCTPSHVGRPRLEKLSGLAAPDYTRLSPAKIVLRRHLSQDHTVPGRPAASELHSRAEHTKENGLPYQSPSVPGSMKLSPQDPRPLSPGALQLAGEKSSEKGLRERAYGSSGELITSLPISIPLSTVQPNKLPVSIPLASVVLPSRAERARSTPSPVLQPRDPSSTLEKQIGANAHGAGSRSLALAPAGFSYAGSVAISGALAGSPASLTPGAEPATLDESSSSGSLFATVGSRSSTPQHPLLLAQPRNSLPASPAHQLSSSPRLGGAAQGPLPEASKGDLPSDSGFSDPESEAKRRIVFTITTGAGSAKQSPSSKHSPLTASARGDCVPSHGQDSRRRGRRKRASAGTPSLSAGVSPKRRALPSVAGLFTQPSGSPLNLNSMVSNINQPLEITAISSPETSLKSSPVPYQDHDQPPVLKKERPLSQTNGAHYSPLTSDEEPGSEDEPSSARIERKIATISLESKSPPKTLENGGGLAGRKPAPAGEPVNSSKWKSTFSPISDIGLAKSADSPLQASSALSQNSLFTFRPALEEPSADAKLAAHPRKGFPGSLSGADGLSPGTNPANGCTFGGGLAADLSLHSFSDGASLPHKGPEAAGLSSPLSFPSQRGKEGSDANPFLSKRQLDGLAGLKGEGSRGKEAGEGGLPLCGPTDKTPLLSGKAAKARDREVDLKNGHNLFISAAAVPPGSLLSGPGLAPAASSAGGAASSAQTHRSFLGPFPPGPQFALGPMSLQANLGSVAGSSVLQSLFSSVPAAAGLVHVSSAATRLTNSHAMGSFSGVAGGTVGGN

U2OS cells = assay: 53BP1 IR-induced foci in irradiated U2OS cells after siRNA (immunofluorescence); format: cell-based, human; conditions: 9 Gy IR, 15 min later
Method: FIG. 4 Histone H3 methylated on Lys79 and changes in higher order chromatin structure recruit 53BP1 to sites of DNA DSBs and chromatin. a, Suppression of histone H3 methylation on Lys79 inhibits recruitment of 53BP1 to sites of DNA DSBs. The percentage of irradiated (9 Gy) U2OS cells without (w/o) 53BP1 foci was determined from 4 independent experiments of control (ctl) siRNA-treated cells or cells transfected once (1) or 3 consecutive times (3) with dot1L-specific siRNA. Bars indicate standard errors. […] Histones prepared from non-irradiated or irradiated (9 Gy) 293T cells were resolved by SDS-PAGE and stained with Coomassie Brilliant Blue (C.B.; top panel) or immunoblotted with antibodies that recognize the C-terminus (C-ter) of histone H3, histone H3 dimethylated on Lys79 (K79dm), histone H2AX and phosphorylated histone H2AX (γ-H2AX; middle panel). […] Bound histone H3 was detected by immunoblotting (IB; lower panel). c, Exposure of cells to hypotonic media slows the nuclear diffusion of 53BP1. […] To show differences in GFP-53BP1 fluorescence before and after bleaching, the post-bleach image was pseudocolored magenta and merged with the pre-bleach image (Diff. image). […]
3 days after the last siRNA transfection, the cells were exposed to 9 Gy IR and 53BP1 intracellular localization was monitored by immunofluorescence 15 min later^5.

| Molecule | competition for binding of histone H3 to 53BP1 [2] | further results |
| --- | --- | --- |
| CC[C@H](C)[C@H](N)C(=O)N[C@@H](C)C(=O)N[C@@H](CCC(N)=O)C(=O)N[C@@H](CC(=O)O)C(=O)N[C@@H](Cc1ccccc1)C(=O)N[C@@H](CCCCN(C)C)C(=O)N[C@H](C(=O)N[C@@H](CC(=O)O)C(=O)N[C@@H](CC(C)C)C(=O)N[C@@H](CCCNC(=N)N)C(=O)O)[C@@H](C)O (H-IAQDF[Lys(Me2)]TDLR-OH; N-terminus and C-terminus assumed) | competed for binding of histone H3 to 53BP1 | Kd [1]: < 1 µM |
| GCUCGCUAUGGAGAAUUACdTdT (guide GCUCGCUAUGGAGAAUUACTT; siRNA; sugars from the 5' end r19 d2, backbone not given here) [siRNA specific for human Dot1L, siRNA directed against human dot1L] |  | methylation of histone H3 on Lys79 (human Dot1L): suppressed; recruitment of 53BP1 to sites of DNA DSBs (U2OS cells): suppressed |
| monomethylated Lys79 peptide: peptide spanning residues 74-83 of histone H3 with mono-methylated Lys79 (IAQDFK(Me)TDLR) | competed with lower efficiency |  |
| peptide with dimethylated Arg26: peptide spanning residues 23-32 of histone H3 with dimethylated Arg26 (KAARKSAPAT; dimethylated Arg26; UniProt P68431 24-33, looked up, fragment) | competed with lower efficiency |  |

Further lines, with some results ahead:

| competition for binding of histone H3 to 53BP1 [2] | Molecule | further results |
| --- | --- | --- |
| did not compete | corresponding non-methylated peptide: peptide spanning residues 74-83 of histone H3 with non-methylated Lys79 (IAQDFKTDLR) |  |
| competed with lower efficiency | peptide with dimethylated Lys27: peptide spanning residues 23-34 of histone H3 with dimethylated Lys27 (KAARKSAPATGG; Lys27 dimethylated; UniProt P68431 24-35, looked up, fragment) |  |
